In patent US11191811B2, “Osteocalcin as a treatment for frailty associated with aging” (THE TRUSTEES OF COLUMBIA UNIVERSITY IN THE CITY OF NEW YORK, priority 2014, dated 2021):

Columns and labels:
[1] = tested on: WT myotubes; assay: Western blot of Akt phosphorylation (Ser473) in cultured myotubes; type: cell-based, mouse; conditions: Ocn 10 ng/ml
Method: FIG. 26. Osteocalcin signaling in myofibers promotes glucose uptake. (A) VO2, (B) VO2 max and (C) RER in female Gprc6af/f and Gprc6aMck−/− mice during a gradual speed increase test. (D-E) Uptake of ^3H-2-deoxyglucose (^3H-2-DG) in WT and Gprc6a−/− myotubes treated with vehicle or Ocn (dose indicated in panel D, 10 ng/ml in panel E). (F) Uptake of ^3H-2-DG in glycolytic (Gly—white quadriceps) and oxidative (Ox—red quadriceps) muscles after a single bout of exercise in Gprc6af/f and Gprc6aMck^−/− mice (n=4 per group). (G) Blood glucose levels in Gprc6af/f and Gprc6aMck−/− mice after running on a treadmill until exhaustion (n=4 per group). (H) Blood glucose levels in Gprc6af/f and Gprc6aHsa−/− mice after running on a treadmill until exhaustion (n=4 per group). (I) Western blot analyses of Akt phosphorylation (Ser473) in WT myotubes treated with Ocn (10 ng/ml) and in muscles of WT mice injected with Ocn (500 ng/g) after a single bout of exercise. (J) Western blot analyses of Akt phosphorylation (Ser473) in Gprc6af/f and Gprc6aMck−/− muscles after a single bout of exercise. (K) Glycogen content and glycogen breakdown in Gprc6af/f and Gprc6aMck−/− muscles at rest and after exercise.
Culture of skeletal muscle myoblasts from 7 day-old mice was performed as described (Gharaibeh et al., 2008, Nature Protocols 3:1501-1509). […]

[2] = tested on: Osteocalcin−/− mice; assay: Behavioral tests of adult Osteocalcin−/− offspring of osteocalcin-injected pregnant Osteocalcin−/− mothers; type: in vivo, mouse; conditions: 240 ng/day once a day to pregnant mothers, E0.5 to E18.5
Method: FIG. 13. Maternal osteocalcin determines spatial learning and memory in adult offspring. (A-F) DLT (A), EPMT (B), OFT (C), FST (D), TST (E), and MWMT (F) performed in 3-month-old Osteocalcin^−/− mice born from Osteocalcin^−/− mothers injected once a day with vehicle or recombinant uncarboxylated osteocalcin (240 ng/day) during pregnancy compared to WT mice. (G) Surface of the lateral ventricle over brain area (%) of E18.5 hippocampi coronal sections of WT embryos originating from WT mothers and Osteocalcin^−/− embryos originating from osteocalcin-injected Osteocalcin^−/− mothers. (H) Number of apoptotic cells (stained by TUNEL assay) of E18.5 hippocampi coronal sections of WT embryos originating from WT mothers and Osteocalcin^−/− embryos originating from Osteocalcin^−/− mothers injected with osteocalcin (240 ng/day). […]
For osteocalcin delivery to pregnant mice, IP injections (240 ng/day) were performed as soon as a plug was present daily until delivery (E0.5-E18.5). […] Leptin and osteocalcin content in sera and tissues were determined by ELISA.
Spatial memory was assessed with Morris water maze (MWM) setup (Morris, 1981, Nature 297:681-683) using a training protocol adapted for mice (D'Hooge et al., 2005, J. Soc. Neurosci. 25:6539-6549). […] Spatial learning is assessed across repeated trials (4 trials/day for 10 days). […]

uncarboxylated osteocalcin: Recombinant uncarboxylated mouse osteocalcin, bacterially produced, purified on glutathione beads and cleaved from the GST subunit by thrombin (YLGASVPSPDPLEPTREQCELNPACDELSDQYGLKTAYKRIYGITI)
phosphorylation of Akt in cultured myotubes [1]: induced
anxiety or depression phenotypes of the offspring [2]: did not have any beneficial effect
deficit in learning and memory of the offspring [2]: rescued over two third
